Data from ChEMBL document CHEMBL6182948 (J Med Chem, 2025).

Columns and labels:
[1] = Tmax in male Sprague-Dawley rat at 2 mg/kg, iv measured up to 24 hrs by LC-MS/MS analysis; type: ADME, organism-based; settings: in vivo
A549/TR [2] = assay: Synergistic antiproliferative activity against human A549/Taxol cells assessed as combination index at 2.5 uM in presence of 0.5 uM paclitaxel by Chou-Talalay method; type: functional
A549/TR [3] = assay: Synergistic antiproliferative activity against human A549/Taxol cells assessed as combination index at 10 uM in presence of 0.1uM paclitaxel by Chou-Talalay method; type: functional
[4] = MRT (0 to infinity) in male Sprague-Dawley rat at 10 mg/kg, po measured up to 24 hrs by LC-MS/MS analysis; type: ADME, organism-based; settings: in vivo
A549/TR [5] = assay: Synergistic antiproliferative activity against human A549/Taxol cells assessed as combination index at 10 uM in presence of 0.025 uM paclitaxel by Chou-Talalay method; type: functional
A549/TR [6] = assay: Synergistic antiproliferative activity against human A549/Taxol cells assessed as combination index at 2.5 uM in presence of 0.025 uM paclitaxel by Chou-Talalay method; type: functional
A549/TR [7] = assay: Inhibition of cell migration in human A549/Taxol cells assessed as wound closure at 5 uM measured after 24 hrs by scratch-wound healing assay relative to control; type: functional; parameters: scale not given: the % may be the effect or the level left
A549/TR [8] = assay: Synergistic antiproliferative activity against human A549/Taxol cells assessed as combination index at 5 uM in presence of 0.1uM paclitaxel by Chou-Talalay method; type: functional
[9] = MRT (0 to t) in male Sprague-Dawley rat at 2 mg/kg, iv measured up to 24 hrs by LC-MS/MS analysis; type: ADME, organism-based; settings: in vivo
A549/TR [10] = assay: Synergistic antiproliferative activity against human A549/Taxol cells assessed as combination index at 5 uM in presence of 0.05 uM paclitaxel by Chou-Talalay method; type: functional
A549/TR [11] = assay: Synergistic antiproliferative activity against human A549/Taxol cells assessed as combination index at 20 uM in presence of 0.025 uM paclitaxel by Chou-Talalay method; type: functional
A549/TR [12] = assay: Synergistic antiproliferative activity against human A549/Taxol cells assessed as combination index at 5 uM in presence of 0.5 uM paclitaxel by Chou-Talalay method; type: functional
[13] = Half life in male Sprague-Dawley rat at 2 mg/kg, iv measured up to 24 hrs by LC-MS/MS analysis; type: ADME, organism-based; settings: in vivo
A549/TR [14] = assay: Synergistic antiproliferative activity against human A549/Taxol cells assessed as combination index at 2.5 uM in presence of 0.05 uM paclitaxel by Chou-Talalay method; type: functional
[15] = Cmax in male Sprague-Dawley rat at 2 mg/kg, iv measured up to 24 hrs by LC-MS/MS analysis; type: ADME, organism-based; settings: in vivo
[16] = Cmax in male Sprague-Dawley rat at 10 mg/kg, po measured up to 24 hrs by LC-MS/MS analysis; type: ADME, organism-based; settings: in vivo
A549/TR [17] = assay: Synergistic antiproliferative activity against human A549/Taxol cells assessed as combination index at 20 uM in presence of 0.1 uM paclitaxel by Chou-Talalay method; type: functional
A549/TR [18] = assay: Synergistic antiproliferative activity against human A549/Taxol cells assessed as combination index at 20 uM in presence of 0.5 uM paclitaxel by Chou-Talalay method; type: functional
[19] = MRT (0 to t) in male Sprague-Dawley rat at 10 mg/kg, po measured up to 24 hrs by LC-MS/MS analysis; type: ADME, organism-based; settings: in vivo
[20] = Clearance in male Sprague-Dawley rat at 2 mg/kg, iv measured up to 24 hrs by LC-MS/MS analysis; type: ADME, organism-based; settings: in vivo
[21] = AUC (0 to infinity) in male Sprague-Dawley rat at 2 mg/kg, iv measured up to 24 hrs by LC-MS/MS analysis; type: ADME, organism-based; settings: in vivo
[22] = Tmax in male Sprague-Dawley rat at 10 mg/kg, po measured up to 24 hrs by LC-MS/MS analysis; type: ADME, organism-based; settings: in vivo
A549/TR [23] = assay: Synergistic antiproliferative activity against human A549/Taxol cells assessed as combination index at 5 uM in presence of 0.025 uM paclitaxel by Chou-Talalay method; type: functional
[24] = AUC (0 to t) in male Sprague-Dawley rat at 10 mg/kg, po measured up to 24 hrs by LC-MS/MS analysis; type: ADME, organism-based; settings: in vivo
[25] = Half life in male Sprague-Dawley rat at 10 mg/kg, po measured up to 24 hrs by LC-MS/MS analysis; type: ADME, organism-based; settings: in vivo
[26] = Apparent volume of distribution in male Sprague-Dawley rat at 2 mg/kg, iv measured up to 24 hrs by LC-MS/MS analysis; type: ADME, organism-based; settings: in vivo, read-out: Vz

Q: With O=C(Nc1cc(Cl)cc(Cl)c1)c1nc(-c2cccc(Cl)c2)cs1 as the compound, how does the Tmax [1] read?
A: The Tmax was 4.8 min.

Q: What about the CI (A549/TR [2]) of the same compound?
A: The CI was 0.24.

Q: And the CI (A549/TR [3])?
A: Its CI is 0.47.

Q: And the MRT inf [4]?
A: Its MRT inf is 2.42 h.

Q: And the CI (A549/TR [5])?
A: The CI was 0.86.

Q: And the CI (A549/TR [6])?
A: The CI was 0.75.

Q: What about the Activity (A549/TR [7]) of the same compound?
A: The Activity was 3%.

Q: And the CI (A549/TR [8])?
A: Its CI is 0.15.

Q: And the MRT last at 24 h [9]?
A: The MRT last at 24 h was 0.64 h.

Q: What about the CI (A549/TR [10]) of the same compound?
A: The CI was 0.16.

Q: What about the CI (A549/TR [11]) of the same compound?
A: The CI was 0.63.

Q: And the CI (A549/TR [12])?
A: Its CI is 0.48.

Q: And the half-life [13]?
A: The half-life was 3.78 h.

Q: And the CI (A549/TR [14])?
A: Its CI is 0.08.

Q: And the Cmax [15]?
A: Its Cmax is 4750 ng/mL.

Q: And the Cmax [16]?
A: The Cmax was 81 ng/mL.

Q: And the CI (A549/TR [17])?
A: Its CI is 0.63.

Q: And the CI (A549/TR [18])?
A: The CI was 2.15.

Q: And the MRT last at 24 h [19]?
A: The MRT last at 24 h was 2.32 h.

Q: What about the clearance [20] of the same compound?
A: The clearance was 14.7 mL/min/kg.

Q: And the AUC(0-inf) [21]?
A: Its AUC(0-inf) is 2300 ng·h/mL.

Q: And the Tmax [22]?
A: The Tmax was 1 h.

Q: And the CI (A549/TR [23])?
A: Its CI is 0.71.

Q: What about the AUC(0-t) at 24 h [24] of the same compound?
A: Its AUC(0-t) at 24 h is 236 ng·h/mL.

Q: And the half-life [25]?
A: Its half-life is 1.12 h.

Q: What about the Vd [26] of the same compound?
A: Its Vd is 4.77 L/kg.
